# Experimental data: US11999716B2, “WDR5 inhibitors and modulators” (priority 2018, dated 2024)
# Test system: MV4:11 human cancer cell lines
# Assay: Cellular viability / anti-proliferative activity, CellTiter-Glo, 5 day protocol
# Assay type: cell-based
# Conditions: Homo sapiens, MV4-11, 120 h, MV4:11 cells; 5 day incubation; CellTiter-Glo; mean of minimum two replicates; read-out: GI50 on cellular proliferation of MV4:11 human cancer cell lines
# Experimental: Cellular Viability of Human Tumor Cell Lines
# Anti proliferative activity using MLL-harboring cell lines. […] Viability assays are performed by dispensing 200 cells at 7200 cells/mL into each well of an opaque 384-well plate and adding compounds at the indicated concentrations in a final volume of 32 μL and a final concentration of DMSO of 0.3% for all samples. A certain range of compound concentrations is made through a series of 2-fold dilutions starting 30 μM at the highest, total 22 dilutions. After a set incubation period, 5 day protocol, the viability of cells in each well is assessed using the CellTiter-Glo assay (Promega), read on a 96 Microplane Luminometer (Cytation 3, BioTek). Serial dilutions of each cell type are performed in all assays to generate standard curves and the final densities of cells are determined within the dynamic range of the instrument. GI50 values are calculated based on XLfit software (IDBS, Guildford, UK) with Sigmoidal Dose-Response Model. Each compound is tested in minimum of two replicates. Data are expressed as mean.
row,Structure (SMILES),GI50 [µM]
1,"COc1ccnc(CN2CCc3c(cc(Cn4ccnc4C4CC4)cc3-c3cn(C)nc3C)C2=O)c1 [Example 9, 7-((2-Cyclopropyl-1H-imidazol-1-yl)methyl)-5-(1,3-dimethyl-1H-pyrazol-4-yl)-2-((4-methoxypyridin-2-yl)methyl)-3,4-dihydroisoquinolin-1(2H)-one]",0.553
2,"COc1cc(CN2CCc3c(cc(Cn4ccnc4C)cc3-c3cn(C)nc3C(F)(F)F)C2=O)cc(OC)c1 [Example 10, 2-(3,5-Dimethoxybenzyl)-7-((2-methyl-1H-imidazol-1-yl)methyl)-5-(1-methyl-3-(trifluoromethyl)-1H-pyrazol-4-yl)-3,4-dihydroisoquinolin-1(2H)-one]",< 0.05
3,"COc1ccnc(CN2CCc3c(cc(Cn4ccnc4C4CC4)cc3-c3cn(C)nc3C(F)(F)F)C2=O)c1 [Example 11, 7-((2-Cyclopropyl-1H-imidazol-1-yl)methyl)-2-((4-methoxypyridin-2-yl)methyl)-5-(1-methyl-3-(trifluoromethyl)-1H-pyrazol-4-yl)-3,4-dihydroisoquinolin-1(2H)-one]",0.054
4,"CCn1cc(-c2cc(Cn3ccnc3C3CC3)cc3c2CCN(Cc2cc(C)nn2C)C3=O)c(C(F)(F)F)n1 [Example 14, 7-((2-Cyclopropyl-1H-imidazol-1-yl)methyl)-2-((1,3-dimethyl-1H-pyrazol-5-yl)methyl)-5-(1-ethyl-3-(trifluoromethyl)-1H-pyrazol-4-yl)-3,4-dihydroisoquinolin-1(2H)-one]",> 0.938
5,"COc1cc(CN2CCc3c(cc(Cn4ccnc4C4CC4)cc3-c3ccc(F)cc3C)C2=O)cc(OC)c1 [Example 16, 7-((2-Cyclopropyl-1H-imidazol-1-yl)methyl)-2-(3,5-dimethoxybenzyl)-5-(4-fluoro-2-methylphenyl)-3,4-dihydroisoquinolin-1(2H)-one]",> 0.938
6,"COc1cc(CN2CCc3c(cc(Cn4cc(C)nc4C)cc3-c3cn(C)nc3C(F)(F)F)C2=O)cc(OC)c1 [Example 17, 2-(3,5-Dimethoxybenzyl)-7-((2,4-dimethyl-1H-imidazol-1-yl)methyl)-5-(1-methyl-3-(trifluoromethyl)-1H-pyrazol-4-yl)-3,4-dihydroisoquinolin-1(2H)-one]",0.36
7,"COc1cc(CN2CCc3c(cc(Cn4cc(C)nc4C)cc3-c3ccc(F)cc3C)C2=O)cc(OC)c1 [Example 18, 2-(3,5-Dimethoxybenzyl)-7-((2,4-dimethyl-1H-imidazol-1-yl)methyl)-5-(4-fluoro-2-methylphenyl)-3,4-dihydroisoquinolin-1(2H)-one]",> 0.938
8,"COc1cc(CN2CCc3c(OCC4CC4)cc(Cn4ccnc4C4CC4)cc3C2=O)cc(OC)c1 [Example 19, 7-((2-Cyclopropyl-1H-imidazol-1-yl)methyl)-5-(cyclopropylmethoxy)-2-(3,5-dimethoxybenzyl)-3,4-dihydroisoquinolin-1(2H)-one]",> 0.938
9,"CCc1ccnc(CN2CCc3c(cc(Cn4ccnc4C)cc3-c3cn(CC)nc3C(F)(F)F)C2=O)c1 [Example 21, 5-(1-Ethyl-3-(trifluoromethyl)-1H-pyrazol-4-yl)-2-((4-ethylpyridin-2-yl)methyl)-7-((2-methyl-1H-imidazol-1-yl)methyl)-3,4-dihydroisoquinolin-1(2H)-one]",< 0.05

# Now from value to compound:
row,GI50 [µM],Structure (SMILES)
1,0.239,"O=C1c2cc(Cn3ccnc3)ccc2CCN1Cc1cc(Cl)cc(Cl)c1 [Example 1, 7-((1H-Imidazol-1-yl)methyl)-2-(3,5-dichlorobenzyl)-3,4-dihydroisoquinolin-1(2H)-one]"
2,> 0.938,"Cc1nccn1Cc1ccc2c(c1)C(=O)N(Cc1cc(Cl)cc(Cl)c1)CC2 [Example 2, 2-(3,5-Dichlorobenzyl)-7-((2-methyl-1H-imidazol-1-yl)methyl)-3,4-dihydroisoquinolin-1(2H)-one]"
3,> 0.938,"Cc1cc(CN2CCc3c(cc(Cn4ccnc4C)cc3-c3ccccc3)C2=O)ccc1Cl [Example 5, 2-(4-Chloro-3-methylbenzyl)-7-((2-methyl-1H-imidazol-1-yl)methyl)-5-phenyl-3,4-dihydroisoquinolin-1(2H)-one]"
4,0.301,"COc1cc(CN2CCc3c(cc(Cn4ccnc4C)cc3-c3ccc(F)cc3C)C2=O)cc(OC)c1 [Example 6, 2-(3,5-Dimethoxybenzyl)-5-(4-fluoro-2-methylphenyl)-7-((2-methyl-1H-imidazol-1-yl)methyl)-3,4-dihydroisoquinolin-1(2H)-one]"
5,0.572,"Cc1cc(CN2CCc3c(cc(Cn4ccnc4C)cc3-c3cccnc3C)C2=O)ccc1Cl [Example 7, 2-(4-Chloro-3-methylbenzyl)-7-((2-methyl-1H-imidazol-1-yl)methyl)-5-(2-methylpyridin-3-yl)-3,4-dihydroisoquinolin-1(2H)-one]"
6,< 0.05,"COc1ccnc(CN2CCc3c(cc(Cn4ccnc4C)cc3-c3cn(C)nc3C(F)(F)F)C2=O)c1 [Example 8, 2-((4-Methoxypyridin-2-yl)methyl)-7-((2-methyl-1H-imidazol-1-yl)methyl)-5-(1-methyl-3-(trifluoromethyl)-1H-pyrazol-4-yl)-3,4-dihydroisoquinolin-1(2H)-one]"
7,0.069,"Cc1ccnc([C@H](C2CC2)N2CCc3c(cc(Cn4ccnc4C)cc3-c3ccc(F)cc3C)C2=O)c1 [Example 12, (S)-2-(Cyclopropyl(4-methylpyridin-2-yl)methyl)-5-(4-fluoro-2-methylphenyl)-7-((2-methyl-1H-imidazol-1-yl)methyl)-3,4-dihydroisoquinolin-1(2H)-one]"
8,0.105,"CCc1nccn1Cc1cc2c(c(-c3ccc(F)cc3C)c1)CCN([C@H](c1cc(C)ccn1)C1CC1)C2=O [Example 13, (S)-2-(Cyclopropyl(4-methylpyridin-2-yl)methyl)-7-((2-ethyl-1H-imidazol-1-yl)methyl)-5-(4-fluoro-2-methylphenyl)-3,4-dihydroisoquinolin-1(2H)-one]"
9,0.076,"CCn1cc(CN2CCc3c(cc(Cn4ccnc4C)cc3-c3cn(CC)nc3C(F)(F)F)C2=O)nn1 [Example 15, 2-((1-Ethyl-1H-1,2,3-triazol-4-yl)methyl)-5-(1-ethyl-3-(trifluoromethyl)-1H-pyrazol-4-yl)-7-((2-methyl-1H-imidazol-1-yl)methyl)-3,4-dihydroisoquinolin-1(2H)-one]"
10,0.508,"CCn1cc(-c2cc(Cn3ccnc3C)cc3c2CCN(Cc2cn(C)nc2C)C3=O)c(C(F)(F)F)n1 [Example 20, 2-((1,3-Dimethyl-1H-pyrazol-4-yl)methyl)-5-(1-ethyl-3-(trifluoromethyl)-1H-pyrazol-4-yl)-7-((2-methyl-1H-imidazol-1-yl)methyl)-3,4-dihydroisoquinolin-1(2H)-one]"
11,0.145,"CCc1ccnc(CN2CCc3c(cc(Cn4cc(C)nc4C)cc3-c3cn(CC)nc3C(F)(F)F)C2=O)c1 [Example 22, 7-((2,4-Dimethyl-1H-imidazol-1-yl)methyl)-5-(1-ethyl-3-(trifluoromethyl)-1H-pyrazol-4-yl)-2-((4-ethylpyridin-2-yl)methyl)-3,4-dihydroisoquinolin-1(2H)-one]"
12,> 0.938,"Cc1cc([C@H](C)N2CCc3c(OCC4CC4)cc(Cn4ccnc4C4CC4)cc3C2=O)ccc1F [Example 23, (S)-7-((2-Cyclopropyl-1H-imidazol-1-yl)methyl)-5-(cyclopropylmethoxy)-2-(1-(4-fluoro-3-methylphenyl)ethyl)-3,4-dihydroisoquinolin-1(2H)-one]"
